Laboratory results reported in patent US20140107015A1, “PHARAMACEUTICAL COMPOSITION FOR PREVENTING OR TREATING HUMAN IMMUNODEFICIENCY VIRUS” (priority 2012, published 2014).
Like-named read-outs stand apart in the source and are kept apart here.

Key:
[1] = target: HIV-1 reverse transcriptase (UniProt P04585); conditions: for reverse transcriptase (RT) activity inhibition: 0.5 mg/ml, FIG. 23
[2] = system: H9 cells infected with HIV-1IIIB; experiment: Western blot analysis of p24 protein amount in cells; assay type: cell-based; conditions: 0.01 to 1 mg/ml; cultured for 4 days; FIG. 34
Experimental: The total cultured cells were lysised in RIPA buffer solution (Sigma-Aldrich Corp., St. Louis, USA), centrifuged, and then the total protein amount of cell lysate was measured by using Lowry method (BioRad Laboratories, Hercules, Calif.). The aliquot supernatant including the same volume of protein (15 μg) was subjected to 10% or 12% SDS-PAGE gel, transferred on a nitrocellulose membrane (Amersham Pharmacia Biotech., England, UK), and blocked in Tris buffered saline containing 0.1% (v/v) Tween-20 (TBS-T) and 5% skim milk powder for at least 1 hour. The membrane was hybridized with mouse anti-p24 monoclonal antibody (Santa Cruz Biotechnology Inc., CA, USA). All the primary monoclonal antibodies were diluted with TBS-T at a ratio of 1:1000. The antibody was detected with Horseradish peroxidase (HRP)-conjugated anti-mouse IgG secondary antibody for 1 hour. The immune reactive protein was detected by using a chemical fluorescence ECL detecting kit (Amersham Pharmacia Biosciences, England, UK) according to the manufacturer's instruction. The western blot bands were visualized by LAS3000® chemiluminescence (Fujifilm Life Science, Tokyo, Japan).

[3] = system: C8166 cell lines infected with HIV-1RF; experiment: Syncytia formation in C8166 cells infected with HIV-1RF (microscopy, 48 hours); assay type: cell-based; conditions: 0.5 mg/ml; for number of syncytia formation per well versus untreated control: FIG. 22; for syncytia formation observed with a microscope: FIGS. 18, 19, 21
Experimental: Since then, a degree of syncytia formation was observed by using a microscope.
When the virus infection stimulating cell fusion was analyzed, the syncytia formation was tested in order to investigate the virus infection.
Specifically, 1×10^5 C8166 cells in aliquots of 300 μl were seeded in triplicate to a 48-well plate containing 100 μl of serial dilutions of COS-amino acids (each of chitosan oligomer-amino acid conjugate) in complete RPMI-1640 medium with 5% FBS. After 2 hours of incubation, the cells were infected with 100 μl of stock supernatant of HIV-1RF diluted in complete medium at 200 CCID50 (μg/ml). The plates were incubated at 37° C. for 48 hours and the formation of syncytia was determined microscopically by using an inverted microscope (Leica Microsystems, Germany).
After 2 hours of incubation, the cells were infected with 100 μl of stock supernatant of HIV-1RF diluted in complete medium at 200 CCID50 (μg/ml). The plates were incubated at 37° C. for 48 hours and the formation of syncytia was determined microscopically by using an inverted microscope.

[4] = system: C8166 cell lines infected with HIV-1IIIB; conditions: 0.5 mg/ml; for cell viability of HIV-1-infected C8166 cells: 48 hours after HIV-1IIIB infection, MTT, untreated cells = 100%; for cell protecting effect from HIV-1 lysis activity (cell deaths): FIG. 17 and 20
Experimental: And then, the cytotoxicities were measured through MTT assay as time passed.
Since C8166 cell lines were sensitive about lysis effect of HIV-1 replication, the present test evaluated a degree of inhibiting HIV-1 replication based on the sensitivity of C8166 cells at lysis activity due to HIV-1 infection in the present experiment.
Since then, the supernatants of HIV-1IIIB were diluted in complete medium to yield sufficient cytopathicity, and a 100 μl aliquot was added to the wells. Plates were incubated for 24 h, 48 h and 72 h at 37° C. and after each respective incubation, 100 μl of 500 μg/ml MTT solution was added to each well and the plate was incubated for another 4 hours at 37° C. The formazan salt was dissolved in acidified propanol containing 50% DMSO and 4% triton X-100. […] The optical density of formazan formed by untreated cells was taken as 100% of viability.

[5] = system: CEM-SS cells infected with HIV-1IIIB and HIV-1Saq; conditions: 0.5 mg/ml; FIG. 37
Experimental: Uninfected CEM-SS cells were cultured into individual wells of a 48-well microtiter plate at a density of 3×10^4 cells/well in 400 μl of medium. Diluted HIV-1IIIB and HIV-1Saq stock supernatants (100 μl) were added to appropriate wells to yield a final M.O.I of 1.0 (CCID50). […] After a total of 4 days incubation, in order to measure the amount of p24 production, HIV-1 p24 antigen capture ELISA was performed using the commercial kit (Perkin-Elmer Life Sciences, Boston, Mass.) according to the manufacturer's instruction.

[6] = system: TZM-b1 cell infected with HIV-1IIIB; conditions: for HIV-1 replication (gene reporter): 0.05, 0.1, 0.5, and 1 mg/ml, 48 hours, FIG. 38; for HIV-1 replication inhibition relative to the other samples: among COS-D, COS-T, COS-Y, COS-TD, COS-TY
Experimental: Briefly, one day before infection, 5×10^4 TZM-d1 cells were seeded in a 24-well flat, and added with 100 μl of HIV-1IIIB supernatant (100 CCID50 (1 μg/ml)) to infect 50% of the cells. […] After incubation, cells were washed with cold PBS and lysed in 300 μl of lysis buffer (Promega Corp., Madison, Wis.). 20 μl of cell lysate was mixed with 100 μl of luciferase substrate (Promega) and light emission was measured for 10 seconds in a luminometer (Tecan Austria GmbH, Austria). In case of β-galactosidase assay, 100 μl of X-gal substrate was mixed with cell lysate in order to stain the HIV-1 replicated cells and light absorption was measured at the optical density of 550 nm.

[7] = system: uninfected C8166 cell lines co-cultured with H9 cells infected with HIV-1IIIB; experiment: Syncytia formation in co-culture of uninfected C8166 with H9 infected with HIV-1IIIB; assay type: cell-based; conditions: for syncytia formation in co-culture over concentrations: 0.2, 0.4, 0.6, 0.8, and 1 mg/ml, 96 hours, FIGS. 32, 33; for syncytia formation inhibition in co-culture compared with positive control group: positive control Dextran sulfate
Experimental: After 96 hours, the formed syncytia was counted by using a microscope (100×). Dextran sulfate having the syncytia formation inhibiting effect was used as a positive control group.

[8] = system: H9 cells infected with HIV-1IIIB; experiment: RT-PCR analysis of HIV-1 gene (Vif, Env, Gag) expression; assay type: cell-based; conditions: for Vif, Env, and Gag genes expressions: 0.05, 0.1, 0.5, and 1 mg/ml, 4 days, FIG. 35; for Env gene expression: as treatment concentrations were increased
Experimental: RNA in the total cells cultured was isolated by using Trizol reagent (Invitrogen Co., CA, USA). 2 μg of isolated RNA was reverse-transcripted into cDNA using an oligo-(dT) primer (Promega, Madison, Wis., USA). […] A PCR product was isolated by subjecting an electrophoresis on 1.5% agarose gel at 100 V for 10 minutes. The gel was stained with 1 mg/ml of EtBr, and then photographed under UV illumination by using AlphaEas® gel image analysis software (Alpha Innotech., San Leandro, Calif., USA).

[9] = system: 8E5 and MOLT-4 cell lines; experiment: Syncytia formation in co-culture of 8E5 and MOLT-4 cell lines; assay type: cell-based; conditions: 0.5 mg/ml; for number of syncytia formed with time: FIG. 36; for syncytia formation inhibiting effect compared with control group: positive control AZT-Saq
Experimental: The number of syncytia formed with time was determined. Mock was an experimental group without the sample and AZT-Saq treated with AZT and saquinavir at the same time was used as a positive control.

[10] = system: C8166 cells infected with HIV-1RF; experiment: Syncytia formation inhibition in C8166 infected with HIV-1RF, various concentrations, 96 hours; assay type: cell-based; conditions: for syncytia formation inhibition over concentrations: 0.2, 0.4, 0.6, 0.8, and 1.0 mg/ml, 96 hours, FIGS. 28, 29
Experimental: Specifically, 1×10^5C8166 cells in aliquots of 300 μl were seeded in triplicate to a 48-well plate containing 100 μl of serial dilutions of COS-N in complete RPMI-1640 medium with 5% FBS. After 2 hours of incubation, the cells were infected with 100 μl of stock supernatant of HIV-1RF diluted in complete medium at 200 CCID50 (μg/ml). The plates were incubated at 37° C. for 96 hours and the formation of syncytia was determined microscopically by using an inverted microscope (Leica Microsystems, Germany). Dextran sulfate having the syncytia formation inhibiting effect was used as a positive control group.
The syncytia formation effect was measured by using the same method as in Example <4-3>.

[11] = target: T1, HIV-1 reverse transcriptase (Human immunodeficiency virus type 1 group M subtype B, UniProt P05959); assay type: biochemical; conditions: for reverse transcriptase inhibiting activity over concentrations: 0.05, 0.1, 0.25, 0.5, and 1 mg/ml, FIGS. 26, 27
T1 construct: endogenous in cells; host or cells: C8166 and CEM-SS cells infected with HIV-1RF (lysates)

HIV-1 protease [12] = target: T2, HIV-1 protease (Human immunodeficiency virus type 1 group M subtype B, UniProt P05959); experiment: Protease assay with protease diluents of C8166 and CEM-SS infected with HIV-1RF, various concentrations; assay type: biochemical; conditions: 0.05, 0.1, 0.25, 0.5, and 1 mg/ml; FIG. 30
T2 construct: endogenous in cells; host or cells: C8166 and CEM-SS cells infected with HIV-1RF
Experimental: First, the HIV-1 protease inhibiting activity was measured by using the same method as in Example <3-3> except that the protease diluents of two cell lines, C8166 and CEM-SS infected with HIV-1RF.

[13] = system: HIV-1 protease of HIV-1saq; experiment: SensoLyte 520 HIV-1 protease FRET assay in saquinavir resistant HIV-1saq; assay type: biochemical; conditions: saquinavir resistant strain; FIG. 25
Text: Meanwhile, the present inventors examined HIV-1 protease inhibiting effect using other cell lines of HIV-1. They use HIV-1saq that is a cell line having a resistance to saquinavir.
Saquinavir was used as a positive control group.

HIV-1 protease [14] = conditions: 0.5 mg/ml; HIV-1RF/HIV-1IIIB; FIG. 24
Experimental: The amino acid sequence of FRET peptide is made by copying p17/p24 decomposition site by HIV-1 protease on a precursor Gag protein. FRET peptide is decomposed by HIV-1 protease and fluoresces.
Since then, 20 μl of substrate was added to HIV-1 protease that is pre-cultured at the same temperature for the same period and then slowly well-mixed for 30 to 60 second, completely. Since then, the fluorescence was measured at Ex/Em=340 nm/490 nm. The inhibiting rate was estimated as a relatively value to 100 of the fluorescence of the sample without an inhibitor.

[15] = system: H9 cells infected with HIV-1IIIB; experiment: HIV-1 p24 antigen capture ELISA of culture supernatant; assay type: cell-based; conditions: various concentrations; FIG. 31
Experimental: In order to measure p24 amount secreted from virus, H9 cells (3×10^6 cells/ml) was cultured at 37° C. for 1 hour in the presence of HIV-1IIIB. The unbound virus was removed from the cells by washing, and re-suspended in the culture medium to be 3×10^5 cells/ml. 1 mL of aliquot was injected to 24-well plate including the medium having the same volume containing COS-E sample. In order to measure the amount of virus secreted in the medium, HIV-1 p24 antigen capture ELISA was performed according to the manufacturer's instruction using a commercial kit (Perkin-Elmer Life Sciences, Boston, Mass.).

[16] = sample 0.5 mg/ml, mean of HIV-1RF and HIV-1IIIB

Compound | reverse transcriptase (RT) activity inhibition [1] | IC50 (RT inhibition) ([1]; mean of HIV-1RF and HIV-1IIIB) [µg/mL] | RT Inhibition (%) [1, 16] [%] | number of syncytia formation per well versus untreated control [3] | syncytia formation observed with a microscope [3] | cell viability of HIV-1-infected C8166 cells [4] [%] | HIV-1 replication (gene reporter) [6] | other results
Cc1cn([C@H]2C[C@H](N=[N+]=[N-])[C@@H](CO)O2)c(=O)[nH]c1=O [AZT, zidovudine, reference compound] |  |  |  |  |  |  |  | RT Inhibition (%) ([1]; positive control 2 μM, mean of HIV-1RF and HIV-1IIIB): 82.6%; IC50 ([1]; read-out: IC50 (RT inhibition), mean of HIV-1RF and HIV-1IIIB): 303 µM
Chitosan oligomer-(Threonine-Aspartic acid) [COS-TD] | effectively inhibited | 207 | 85.1 | more significantly inhibited | rarely formed | 94.6 | inhibited the HIV-1 replication depending on the concentration | p24 antigen production (western blot) [2]: inhibited depending on the treatment concentrations; cell protecting effect from HIV-1 lysis activity (cell deaths) [4]: high cell protecting effect; p24 production inhibiting activity with later addition [5]: reduced as time passes; HIV-1 replication inhibition relative to the other samples [6]: more effective; syncytia formation in co-culture over concentrations [7]: inhibited depending on the treated concentration; syncytia formation inhibition in co-culture compared with positive control group [7]: more effective; Vif, Env, and Gag genes expressions [8]: reduced depending on the treatment concentrations; Env gene expression [8]: significantly inhibited; number of syncytia formed with time [9]: not increased; syncytia formation inhibiting effect compared with control group [9]: high syncytia formation inhibiting effect
Chitosan oligomer-(Threonine-Tyrosine) [COS-TY] | effectively inhibited |  | 85.8 | more significantly inhibited | rarely formed |  | inhibited the HIV-1 replication depending on the concentration | p24 antigen production (western blot) [2]: inhibited depending on the treatment concentrations; cell protecting effect from HIV-1 lysis activity (cell deaths) [4]: high cell protecting effect; p24 production inhibiting activity with later addition [5]: reduced as time passes; HIV-1 replication inhibition relative to the other samples [6]: more effective; syncytia formation in co-culture over concentrations [7]: inhibited depending on the treated concentration; syncytia formation inhibition in co-culture compared with positive control group [7]: more effective; Vif, Env, and Gag genes expressions [8]: reduced depending on the treatment concentrations; Env gene expression [8]: significantly inhibited; number of syncytia formed with time [9]: not increased; syncytia formation inhibiting effect compared with control group [9]: high syncytia formation inhibiting effect
Chitosan oligomer-Asparagine [COS-N] |  | 954 | 41.8 | significantly inhibited | inhibited | 71.2 |  | syncytia formation inhibition over concentrations [10]: depending on the concentration; syncytia formation inhibition compared with positive control group ([10]; positive control Dextran sulfate): more effective
Chitosan oligomer-Aspartic acid [COS-D] | effectively inhibited |  | 83.4 | significantly inhibited | inhibited | 78.8 | inhibited the HIV-1 replication depending on the concentration | reverse transcriptase inhibiting effect at 0.05 mg/ml ([11]; 0.05 mg/ml): no the reverse transcriptase inhibiting effect; reverse transcriptase activity at low concentrations ([11]; 0.05 mg/ml and 0.1 mg/ml): not inhibited; reverse transcriptase inhibiting activity over concentrations [11]: depending on the concentration
Chitosan oligomer-Glutamic acid [COS-E] |  | 1036 | 32.7 | significantly inhibited | inhibited |  |  | HIV-1 protease inhibition over concentrations (HIV-1 protease [12]): depending on the concentration; HIV-1 protease inhibition in HIV-1saq [13]: effectively inhibited; HIV-1 protease inhibition (HIV-1 protease [14]): effectively inhibited; p24 secretion amount (production amount) in culture supernatant [15]: effectively inhibited
Chitosan oligomer-Threonine [COS-T] |  | 761 | 55.3 | significantly inhibited | inhibited | 72.3 | inhibited the HIV-1 replication depending on the concentration | syncytia formation inhibiting activity at 0.5 mg/ml or more ([10]; 0.5 mg/ml or more, as compared with COS-N): very sharply increased; syncytia formation inhibition over concentrations [10]: depending on the concentration
Chitosan oligomer-Tyrosine [COS-Y] | effectively inhibited |  | 83.5 | significantly inhibited | inhibited |  | inhibited the HIV-1 replication depending on the concentration | reverse transcriptase inhibiting activity over concentrations [11]: depending on the concentration
